“And” between values parts separate entries of the source, which are not always exact repeats. Identical values can stand only once. Counter-ions that a name gives are not always drawn. Like-named read-outs stand apart in the source and are kept apart here. Each block holds one compound with its values, some of them ahead of it.
Tests used:
[1] = tested on: beta adrenergic receptor (heart rate response to isoproterenol); assay: Duration and potency of beta-blocking action in vivo, 3-hour infusion in pentobarbital-anesthetized dogs; design: species or system dog; details: for % Inhibition / Time for 50% Rec. / Time for 80% Rec.: Table IV, dose 2.4 / 22.0 ug/kg/min.; for Potency / % I (Percent inhibition of heart rate response to isoproterenol) / Recovery Time 50% / Recovery Time 80%: Table II; for Potency: infusion rate adjusted so isoproterenol inhibition averaged about 50% at end of 3-hour infusion; for % I (Percent inhibition of heart rate response to isoproterenol): isoproterenol 0.5 μg/kg bolus, 3-hour infusion; for Recovery Time 50% / Recovery Time 80%: after termination of 3-hour infusion
Description: The duration of β-blockade was determined in vivo using pentobarbital-anesthetized dogs instrumented for measurement of heart rate using a Beckman cardiotachometer triggered electronically by a phasic aortic blood pressure signal. Both vagus nerves were severed in the cervical region and the animals were mechanically ventilated. The experimental design used employed a 3-hour infusion of test compound. Bolus doses of isoproterenol (0.5 μg/kg) were used to assess the degree of β-blockade and recovery from β-blockade after […] of the infusion. The doses were spaced at 10-minute intervals and were given before, during and following the infusion of test compounds. The infusion rate was adjusted so that at the end of the 3-hour infusion period the degree of isoproterenol inhibition averaged about 50% of control. Following termination of blocker infusion, percent recovery from β-blockade was computed and the time associated with 80% recovery estimated.

[2] = target: T1, beta adrenergic receptor (guinea pig right atria) (Cavia porcellus, UniProt H0W3H1); assay: Beta-blocking activity in vitro, guinea pig right atria (blockade of isoproterenol rate response)
T1 construct: guinea pig right atria and guinea pig tracheal strips mounted in a tissue bath; from tissue; host or cells: guinea pig right atria, spontaneously beating

[3] = Half-lives of beta blockers in dog liver homogenate (procedure D); format: in vitro ADME; details: 33% (w/v) homogenate, 37° C., read-out: T1/2 dog liver homogenate
Description: (§1) The rate of disappearance of a compound is expressed as the half-life (T1/2), which is the time period in which one half of the initial amount of compound tested disappears. In each experiment, 1 ml of a solution containing 50 μg of the test compound was added to 1 ml of whole blood or 1 ml of a 33% (w/v) liver homogenate. The samples were incubated in a Dubnoff shaking metabolic incubator for 2.5, 5.0, 10.0, 20.0, 30.0 and 60.0 minutes at 37° C. At the designated time periods, the test mixtures were removed from the incubator and transferred to a 0° C. ice bath. Acetonitrile (2 ml) was immediately added and the mixtures were mixed to stop enzymatic hydrolysis. Zero time samples were prepared by adding 2 ml of acetonitrile to denature the proteins prior to addition of the test compounds. After centrifugation to sediment denatured proteins, 2 ml of the supernatant was removed and analyzed by high pressure liquid chromatography, using a mobile phase of 60% acetonitrile/40% 0.05 m sodium phosphate buffer (pH 6.6), a U.V. detector and Waters u Bondapak Phenyl column. The half life of each test compound was determined graphically by plotting the decrease in concentrations as a function of time.

[4] = Enzymatic hydrolysis of beta blockers by dog blood (procedure C); format: in vitro ADME; details: for remaining at 1 h / remaining at 2 h: dog, blood, 37° C.; for remaining at 1 h: read-out: Percent drug remaining, dog blood, 1 HR; for remaining at 2 h: read-out: Percent drug remaining, dog blood, 2 HR
Description: (§2) Chemicals--Acetonitrile was "HPLC" grade. Distilled water was used to dissolve the compounds and 0.01N HCl was used to dissolve compounds requiring an acidic pH for dissolution.
(§3) Enzyme Source--Fresh aqueous humor was collected from eyes of dogs using a 23-gauge needle while fresh dog blood was collected into heparinized Vacutainer tubes. Fresh liver was homogenized in 0.9% NaCl using a Potter-Elvehjem Teflon pestle and glass homogenizer making a 25% (W/V) homogenate.
(§4) Incubation Condition--A 0.5 ml aliquot of dog aqueous humor, blood or liver homogenate was incubated with 12.5 μg (0.5 ml) of beta blocker in a Dubnoff shaking metabolic incubator at 37° C. for 60 and 120 min. Denatured tissue controls were prepared by adding 2.0 ml of acetonitrile into 0.5 ml of aqueous humor, blood or liver homogenate to destroy esterase activities prior to addition of the beta blockers. The controls were then incubated at 37° C. for 120 min. After 60 and 120 min, the incubations were terminated by addition of 2 ml of acetonitrile and immediately mixed by a Vortex® to stop esterase activities.
(§5) Sample Processing and Data Analyses--All samples were centrifuged at 4000 RPM for 10 min to sediment denatured proteins. The resultant supernatants were transferred to WISP® vials and analyzed using an HPLC assay developed for beta blockers. The hydrolysis of beta blockers by aqueous humor, blood and liver homogenate was determined by disappearance of the compounds. The extent of enzymatic hydrolysis by each tissue was determined by comparing the amount of each compound (absolute peak area) recovered at each time point to the amount of each compound (absolute peak area) in denatured tissue control and aqueous control samples. The results of these experiments are shown in Tabe III.

[5] = Half-lives of beta blockers in dog whole blood (procedure D); format: in vitro ADME; details: 37° C., read-out: T1/2 dog blood
Description: as §1

[6] = Enzymatic hydrolysis of beta blockers by dog aqueous humor (procedure C); format: in vitro ADME; details: for remaining at 1 h / remaining at 2 h: 37° C.; for remaining at 1 h: read-out: Percent drug remaining, dog aqueous humor, 1 HR; for remaining at 2 h: read-out: Percent drug remaining, dog aqueous humor, 2 HR; for half-life: approximate value determined by procedure C, read-out: T1/2 dog aqueous humor
Description: as §2, §3, §4, §5

[7] = Enzymatic hydrolysis of beta blockers by dog liver homogenate (procedure C); format: in vitro ADME; details: for remaining at 1 h / remaining at 2 h: dog, liver homogenate, 37° C.; for remaining at 1 h: read-out: Percent drug remaining, dog liver homogenate, 1 HR; for remaining at 2 h: read-out: Percent drug remaining, dog liver homogenate, 2 HR
Description: as §2, §3, §4, §5

[8] = Table I, guinea pig right atria, isoproterenol agonist, 60-minute incubation, 37° C., read-out: PA2 Rt. Atria (converted)

T1 sequence (H0W3H1 1-470): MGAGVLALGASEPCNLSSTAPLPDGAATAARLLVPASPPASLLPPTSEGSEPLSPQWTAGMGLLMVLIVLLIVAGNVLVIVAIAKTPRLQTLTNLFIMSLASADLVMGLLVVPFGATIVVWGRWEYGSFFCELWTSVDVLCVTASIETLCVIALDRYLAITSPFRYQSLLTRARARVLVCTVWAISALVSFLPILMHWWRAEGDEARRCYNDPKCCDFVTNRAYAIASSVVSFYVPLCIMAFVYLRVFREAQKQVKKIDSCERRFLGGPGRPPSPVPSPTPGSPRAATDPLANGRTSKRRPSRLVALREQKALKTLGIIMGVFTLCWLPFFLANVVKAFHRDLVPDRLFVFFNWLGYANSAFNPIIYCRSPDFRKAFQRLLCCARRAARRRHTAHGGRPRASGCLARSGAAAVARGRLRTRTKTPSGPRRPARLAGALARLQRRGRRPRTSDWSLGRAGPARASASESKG

Kb [2, 8]: 0.794 µM
SMILES: CC(C)C(=O)NCCNCC(O)COC(=O)c1ccccc1F (stereo not shown) [Example I, 3-[[2-(Isopropylcarbonylamino)]ethyl]amino-2-hydroxypropyl 2-Fluorobenzoate Hydrochloride]

Kb [2, 8]: > 0.501 µM
SMILES: CC(=O)NCC(C)NCC(O)COC(=O)c1ccccc1F (stereo not shown) [III, 3-[1-methyl-2-(methylcarbonylamino)]ethylamino-2-hydroxypropyl 2-Fluorobenzoate]

Kb [2, 8]: 0.1 µM
remaining at 1 h [4]: 0%
remaining at 2 h [4]: 0%
half-life [5]: 15 min
remaining at 1 h [7]: 0%
remaining at 2 h [7]: 0%
SMILES: CC(C)(CNS(=O)(=O)c1ccccc1)NCC(O)COC(=O)c1ccccc1F (stereo not shown) [VIII, 3-[1,1-Dimethyl-2-(phenylsulfonylamino)]ethylamino-2-hydroxypropyl 2-Fluorobenzoate Oxalate]
% I (Percent inhibition of heart rate response to isoproterenol) [1]: 43% and 55%

Kb [2, 8]: > 1 µM
SMILES: O=C(Cc1ccccc1)NCCNCC(O)COC(=O)c1ccccc1F (stereo not shown) [XIII, 3-[2-(Benzylcarbonylamino)ethyl]amino-2-hydroxypropyl 2-Fluorobenzoate Hydrochloride]

Kb [2, 8]: 0.02 µM
SMILES: COCCOC(=O)NCC(C)(C)NCC(O)COC(=O)c1ccccc1F (stereo not shown) [XXXI, 3-[1,1-Dimethyl-2-[2-[(2-methoxy)ethoxycarbonylamino]]ethylamino-2-hydroxypropyl 2-Fluorobenzoate Oxalate]

Kb [2, 8]: 0.0398 µM
SMILES: CN(C)S(=O)(=O)NCC(C)(C)NCC(O)COC(=O)c1ccccc1F (stereo not shown) [XXXII, 3-[1,1-Dimethyl-2-(dimethylaminosulfonylamino)]ethylamino-2-hydroxypropyl 2-Fluorobenzoate Oxalate]

Kb [2, 8]: 0.0126 µM
SMILES: CC(C)(CNC(=O)N1CCOCC1)NCC(O)COC(=O)c1ccccc1Cl (stereo not shown) [XXXIV, 3-[1,1-Dimethyl-2-(1-morpholinocarbonylamino)]ethylamino-2-hydroxypropyl 2-Chlorobenzoate Oxalate]

The next lines start with the compound.

SMILES: CC(C)(CNC(=O)N1CCOCC1)NCC(O)COC(=O)c1ccco1 (stereo not shown)
% Inhibition [1]: 40%
Time for 50% Rec. [1]: 9 min
Time for 80% Rec. [1]: 30 min
pA2 (atria) ([2]; Table IV): 7.6

SMILES: CC(C)(CNC(=O)N1CCCCC1)NCC(O)COC(=O)c1ccco1 (stereo not shown)
% Inhibition [1]: 59%
Time for 50% Rec. [1]: 5 min
Time for 80% Rec. [1]: 17 min
Kb ([2]; Table IV, read-out: pA2 (atria) (converted)): 0.1 µM

SMILES: CC(C)NC[C@H](O)COc1cccc2ccccc12 (racemic) [Propanolol, reference compound]
Potency [1]: 0.2 mg/kg/180 min
% I (Percent inhibition of heart rate response to isoproterenol) [1]: 67 ± 6%

SMILES: CC(C)C(=O)NCC(C)(C)NCC(O)COC(=O)c1ccccc1F (stereo not shown) [Example V, 3-[1,1-Dimethyl-2-(isopropylcarbonylamino)]ethylamino-2-hydroxypropyl 2-Fluorobenzoate Oxalate Monohydrate]
half-life [3]: 3.5 min
experiments did not recover to 80% within 60 min ([1]; Table II footnote c): 2/6
Recovery Time 50% [1]: 10 ± 2 min
Recovery Time 80% [1]: 22 ± 6 min
Potency [1]: 0.6 mg/kg/180 min
% I (Percent inhibition of heart rate response to isoproterenol) [1]: 62 ± 5%
Kb [2, 8]: 0.158 µM
remaining at 1 h [4]: 12%
remaining at 2 h [4]: 8%
half-life [5]: 20 min
remaining at 1 h [6]: 75%
remaining at 2 h [6]: 49%
half-life [6]: ~120 min
remaining at 1 h [7]: 0%
remaining at 2 h [7]: 0%

SMILES: CC(C)(CNC(=O)C1CCCCC1)NCC(O)COC(=O)c1ccccc1F (stereo not shown) [Example VI, 3-[1,1-Dimethyl-2-(cyclohexylcarbonylamino)]ethylamino-2-hydroxypropyl 2-Fluorobenzoate Oxalate]
Recovery Time 50% [1]: 8 ± 3 min
Recovery Time 80% [1]: 12 ± 3 min
Potency [1]: 1.4 mg/kg/180 min
% I (Percent inhibition of heart rate response to isoproterenol) [1]: 61%
Kb [2, 8]: 0.02 µM

SMILES: CC(C)(CNC(=O)Cc1ccccc1)NCC(O)COC(=O)c1ccccc1F (stereo not shown) [Example VII, 3-[1,1-Dimethyl-2-(benzylcarbonylamino)]ethylamino-2-hydroxypropyl 2-Fluorobenzoate Hydrochloride]
half-life [3]: 25 min
Recovery Time 50% [1]: 8 min
Recovery Time 80% [1]: 19 min
Potency [1]: 1.8 mg/kg/180 min
% I (Percent inhibition of heart rate response to isoproterenol) [1]: 68%
Kb [2, 8]: 0.0398 µM
remaining at 1 h [4]: 0%
remaining at 2 h [4]: 0%
hydrolysis in dog blood ([4]; within 60 minutes): completely hydrolyzed
half-life [5]: 6 min
remaining at 1 h [6]: 69%
remaining at 2 h [6]: 46%
half-life [6]: ~120 min
metabolised at 1 h ([6]; one hour, read-out: hydrolyzed in aqueous humor after one hour): 31%
metabolised at 2 h ([6]; two hours, read-out: hydrolyzed in aqueous humor after two hours): 54%
remaining at 1 h [7]: 0%
remaining at 2 h [7]: 0%
hydrolysis in liver homogenate ([7]; within 60 minutes): completely hydrolyzed

SMILES: CNC(=O)NCC(C)(C)NCC(O)COC(=O)c1ccccc1F (stereo not shown) [Example XI, 3-[1,1-Dimethyl-2-(methylaminocarbonylamino)]ethylamino-2-hydroxypropyl 2-Fluorobenzoate Hemioxalate]
Recovery Time 80% [1]: > 60 min
Potency [1]: 0.2 mg/kg/180 min
% I (Percent inhibition of heart rate response to isoproterenol) [1]: 81% and 71%
Kb [2, 8]: 0.316 µM

SMILES: CC(C)(CNC(=O)N1CCOCC1)NCC(O)COC(=O)c1ccc(O)c(O)c1 (stereo not shown) [Example XXXV, 3-[2-[1,1-Dimethyl-2-(1-morpholinocarbonylamino)]ethyl]amino-2-hydroxypropyl 3,4-Dihydroxybenzoate Oxalate Monohydrate]
Kb [2, 8]: 0.00631 µM

SMILES: CC(=O)NCC(C)(C)NCC(O)COC(=O)c1ccccc1F (stereo not shown) [IV, 3-[1,1-Dimethyl-2-(methylcarbonylamino)]ethylamino-2-hydroxypropyl 2-Fluorobenzoate]
Recovery Time 50% [1]: 7 min
Recovery Time 80% [1]: 35 min
Potency [1]: 2.7 mg/kg/180 min
% I (Percent inhibition of heart rate response to isoproterenol) [1]: 61%
Kb [2, 8]: 0.0316 µM
remaining at 1 h [4]: 0%
remaining at 2 h [4]: 0%
half-life [5]: 7.5 min
remaining at 1 h [6]: 87%
remaining at 2 h [6]: 52%
half-life [6]: ~120 min
remaining at 1 h [7]: 39%
remaining at 2 h [7]: 23%

SMILES: CC(C)(CNC(=O)N1CCOCC1)NCC(O)COC(=O)c1ccccc1 (stereo not shown) [XXXIII, 3-[1,1-Dimethyl-2-(1-morpholinocarbonylamino)]ethylamino-2-hydroxypropyl Benzoate Oxalate Hemihydrate]
Kb [2, 8]: 0.00501 µM

SMILES: CC(C)(CNC(=O)N1CCOCC1)NCC(O)COC(=O)c1ccc(O)cc1 (stereo not shown) [XXXVI, 3-[1,1-Dimethyl-2-(1-morpholinocarbonylamino)]ethylamino-2-hydroxypropyl 4-Hydroxbenzoate Oxalate]
Kb [2, 8]: 0.00794 µM

SMILES: Cc1cc(O)ccc1C(=O)OCC(O)CNC(C)(C)CNC(=O)N1CCOCC1 (stereo not shown) [XXXVII, 3-[1,1-Dimethyl-2-(1-morpholinocarbonylamino)]ethylamino-2-hydroxypropyl 2-Methyl-4-hydroxybenzoate Oxalate]
PA2 Rt. Atria ([2]; Table I, guinea pig right atria, isoproterenol agonist, 60-minute incubation, 37° C.): 8.2

Source: patent US4798892A, “2-hydroxypropylamine heteroaryl ester derivatives” (priority 1986, dated 1989)
